Results from publication PMC12040169 (PLOS Biology, 2025).

Assay: in vitro
Settings: human, hela cells, % viability

SMILES	viability at 28.5 h, 10 µM [%]
CCCC1=NN=C(c2cc(C(F)(F)F)ccc2C(F)(F)F)C1C(=O)OCC (stereo not drawn) [CBK103527]	118
COc1cc(OC)nc(CC(=O)O)n1 [CBK103537]	104
CC[C@@H]1COCCN1C(=O)c1sc2ccccc2c1Cl [CBK103641]	90.3
CC(C)Nc1nc2ccccc2nc1SCCOc1ccccc1 [CBK103668]	89.8
CC(C)Nc1nc2ccccc2nc1SCCN(C)C [CBK103672]	115
c1ccc(OCCSc2cc(N3CCCC3)ncn2)cc1 [CBK103689]	113
FC(F)(F)c1ccnc(SCCc2ccccn2)c1 [CBK103709]	105
FC(F)(F)c1ccc(SCc2cccs2)nc1 [CBK103711]	96.3
FC(F)(F)c1ccc(SCc2ccccc2)nc1 [CBK103715]	89.7
FC(F)(F)c1ccnc(SCCOc2ccccc2)n1 [CBK103721]	73.9
FC(F)(F)c1nc2ccccc2nc1SCCOc1ccccc1 [CBK103726]	102
CCN(CC)C(=O)CN1C(=O)C2(Nc3ccccc3C(=O)N2c2ccc(F)cc2)c2ccccc21 (stereo not drawn) [CBK103751]	83.3
Cc1ccc(C2(O)CC3CCC(C2)N3C(=O)C2CCC2)cc1 (stereo not drawn) [CBK103860]	99.2
CC(NC(=O)C(C)(C)C)c1nc(-c2cccnc2)n[nH]1 (stereo not drawn) [CBK104007]	94.2
CC(NC(=O)C(C)(C)C)c1nc(-c2ccncc2)n[nH]1 (stereo not drawn) [CBK104074]	91.9
Cn1c(=O)n(CC(=O)NC2CC2)c2cccnc21 [CBK104297]	98.7
c1cc(-c2n[nH]c(C3CCNCC3)n2)ccn1 [CBK104676C]	85.2
O=C1N=C(NC23CC4CC(CC(C4)C2)C3)OC1c1ccccc1 (stereo not drawn) [CBK105263]	107

SMILES	viability at 28.5 h, 10 µM [%]
CC(C)Nc1nccnc1SCCN(C)C [CBK105290]	92.1
CC(=O)NCCSc1cc(NC(C)C)ncn1 [CBK105293]	96.8
CN(C)CCSc1cncc(N2CCCC2)n1 [CBK105294]	104
CN(C)CCSc1cc(N2CCCC2)ncn1 [CBK105295]	116
CC(=O)NCCSc1cc(C(F)(F)F)ccn1 [CBK105297]	107
CC(=O)NCCSc1ccc(C(F)(F)F)cn1 [CBK105298]	94.3
CC(=O)NCCSc1cccc(C(F)(F)F)n1 [CBK105299]	112
FC(F)(F)c1ccnc(SCCc2cnccn2)n1 [CBK105300]	88.6
CCc1[nH]nc(O)c1Cc1c(Cl)cccc1Cl [CBK105304]	115
COCc1[nH]nc(O)c1Cc1c(Cl)cccc1Cl [CBK105305]	91
CC(C)Nc1cc(SCCN(C)C)ncn1 [CBK105616]	109
CC(C)Nc1cc(SCCc2ccccn2)ncn1 [CBK105617]	97.8
CC(=O)NCCSc1nc2ccccc2nc1NC(C)C [CBK105618]	102
CC(=O)NCCSc1cc(N2CCCC2)ncn1 [CBK105621]	106
CN(C)C(=S)Oc1ccc2[nH]c3c(c2c1)CCNC31CCN(CCOc2ccccc2)C1 (stereo not drawn) [CBK105748]	74.8
Cc1ccccc1NC(=O)NCc1ccccc1 [CBK105833]	86.8
CNC(=O)c1nn(CCCc2ccc(OC)cc2)c2ccccc12 [CBK105842]	109

Same assay, conditions: human, hela cells, % viability, bulk resorufin, single well

SMILES	viability at 28.5 h, 10 µM [%]
CC(C)(C)OC(=O)N1CCC2(CC1)OCc1cc(-c3cccc(OCc4ccc(Cl)c(Cl)c4)c3)ccc1O2 [CBK105230]	86.6
CC(C)(C)OC(=O)N1CCC2(CC1)OCc1cc(-c3cccc(OCC(=O)Nc4ccccc4)c3)ccc1O2 [CBK105255]	99.6
Fc1ccc(OCCOc2ccccc2-c2ccc3c(c2)COC2(CCNCC2)O3)cc1 [CBK105745]	88.7
COc1ccc2[nH]cc(CC(=O)Nc3cccc(-c4ccc5c(c4)COC4(CCNCC4)O5)c3)c2c1 [CBK105859]	78
